Results published in patent US20260083750A1, “SMALL MOLECULE INHIBITORS OF KRAS PROTEINS” (MERCK SHARP & DOHME LLC, priority 2022, published 2026).

What was measured:
[1] = target: T1, KRAS-G12C (C51S/C80L/C118S) (Homo sapiens, UniProt P01116, C118S/C51S/C80L/G12C); assay: SOS-catalyzed nucleotide exchange assay (Procedure A, TR-FRET); type: biochemical; conditions: 60 min preincubation, SOS + GTP, read-out: KRAS G12C GNE IC50
T1 construct: N-terminal biotin-acceptor peptide […]
Text: (§1) Procedure for SOS-Catalyzed Nucleotide Exchange Assay for KRAS-G12C/D/V, G13D, HRAS, and NRAS (Procedure A)
(§2) Recombinant KRAS-G12C protein used in this assay has an additional triple mutation (C51S/C80L/C118S), whereas KRAS-G12D/V, G13D, HRAS and NRAS are in context of their WT protein sequence background. Specifically, the SOS-catalyzed nucleotide exchange assay utilizes a preformed TR-FRET complex containing a specific biotinylated RAS protein (KRAS-G12C/V/D, G13D, HRAS, NRAS; described above) with Bodipy-GDP, and Terbium-streptavidin. Compounds are preincubated with this complex for 60 minutes. Subsequently, recombinant human SOS protein and unlabeled GTP are added to initiate the exchange reaction. Small molecule inhibitors stabilize the Bodipy-GDP complex whereas the untreated protein rapidly exchanges Bodipy-GDP for unlabeled GTP resulting in reduced TR-FRET signal.
(§3) To assemble the preformed TR-FRET complexes, each biotinylated RAS protein is diluted to 2 μM in an EDTA Buffer (20 mM HEPES pH 7.5, 50 mM sodium chloride, 10 mM EDTA, and 0.01% Tween) and incubated at room temperature for one hour. This mixture is then further diluted to 90 nM in an Assay Buffer (20 mM HEPES pH 7.5, 150 mM sodium chloride, 10 mM magnesium chloride, and 0.005% Tween) containing 15 nM of Terbium-Streptavidin (Invitrogen, catalog #PV3577) and 900 nM of Bodipy-GDP (Invitrogen, catalog #G22360) and incubated at room temperature for six hours. It should be noted that this preformed TR-FRET complex for each of the RAS protein were made ahead of time, aliquoted and stored at −80° C. until the day of the experiment.
(§4) Each test compound (10 mM stock in DMSO) is diluted in DMSO to make a final-10-point, 3-fold dilution and is acoustically dispensed into a 384-well assay plate (Corning, catalog #3820) using an Echo 550 (Labcyte). Each well of the assay plate receives 3 μL of a specific 3× RAS preformed TR-FRET complex and 3 μL of Assay Buffer and is incubated at room temperature for 60 minutes (preincubation time). Each well then receives 3 μL of 3× recombinant human SOS protein and GTP (Sigma, G8877) in Assay Buffer and is incubated at room temperature for 30 minutes (G13D), 60 minutes (G12C/D, H/NRAS) or 90 minutes for G12V. The final reaction in each well of […] consists of 3 mM GTP, specific Ras and SOS proteins in the following concentrations: KRAS-G12C/SOS=3 nM/40 nM, KRAS-G12D/SOS=1 nM/40 nM, KRAS-G12V/SOS=1.25 nM/160 nM, KRAS-G13D/SOS=1.25 nM/0 nM, HRAS & NRAS=1.25 nM/40 nM.
(§5) The time-resolved fluorescence resonance energy transfer (TR-FRET) signal is measured on an Envision (PerkinElmer) plate reader: Excitation filter=340 nm; emission1=495 nm; emission2=520 nm; dichroic mirror=D400/D505; delay time=[…]. The signal of each well is determined as the ratio of the emission at 520 nm to that at 495 nm. […] The apparent effect as a function of compound concentration is fit to a four-parameter logistic equation.

[2] = target: T2, KRAS-G12D (Homo sapiens, UniProt P01116, G12D); assay: as above; type: biochemical; conditions: 60 min preincubation, SOS + GTP, read-out: KRAS G12D GNE IC50
T2 construct: N-terminal biotin-acceptor peptide […]
Text: as §1, §2, §3, §4, §5

[3] = target: T3, KRAS-G12V (Homo sapiens, UniProt P01116, G12V); assay: as above; type: biochemical; conditions: 60 min preincubation, SOS + GTP, read-out: KRAS G12V GNE IC50
T3 construct: N-terminal biotin-acceptor peptide […]
Text: as §1, §2, §3, §4, §5

[4] = target: T4, KRAS-G13D (Homo sapiens, UniProt P01116, G13D); assay: as above; type: biochemical; conditions: 60 min preincubation, GTP, read-out: KRAS G13D GNE IC50
T4 construct: N-terminal biotin-acceptor peptide […]
Text: as §1, §2, §3, §4, §5

[5] = target: HRAS (Homo sapiens, UniProt P01112); assay: as above; type: biochemical; conditions: 60 min preincubation, SOS + GTP, read-out: HRAS GNE IC50
Text: as §1, §2, §3, §4
(§6) The time-resolved fluorescence resonance energy transfer (TR-FRET) signal is measured on an Envision (PerkinElmer) plate reader: Excitation filter=340 nm; emission1=495 nm; emission2=520 nm; dichroic mirror=D400/D505; delay time=[…]. The signal of each well is determined as the ratio of the emission at 520 nm to that at 495 nm. Percent effect of each well is determined after normalization to control wells containing DMSO (no effect) or a saturating concentration of inhibitor (max effect). The apparent effect as a function of compound concentration is fit to a four-parameter logistic equation.

[6] = target: NRAS (Homo sapiens, UniProt P01111); assay: as above; type: biochemical; conditions: 60 min preincubation, SOS + GTP, read-out: NRAS GNE IC50
Text: as §1, §2, §3, §4, §6

[7] = tested on: PANC08.13 cells (homozygous KRAS-G12D activating mutation); assay: Cellular phospho-ERK assay in G12D cell line; type: cell-based; conditions: Homo sapiens, PANC-08-13, 2 hours compound incubation, ratio of p-ERK vs. total ERK, read-out: PANC 0813 pERK IC50
Description: Procedure for Cellular Phospho-ERK Assay in G12D and G12V Cell Lines
PANC08.13 cells (ATCC® CRL-2551™), containing homozygous KRAS-G12D activating mutation, were cultured in growth medium made of RPMI1640-GlutaMAX™—I (ThermoFisher Scientific 61870) containing 15% heat inactivated fetal bovine serum (ThermoFisher Scientific 10091148)). SW620 cells (ATCC® […]), containing homozygous KRAS-G12V activating mutation, were cultured in growth medium that contains RPMI 1640-GlutaMAX™—I (ThermoFisher Scientific 61870) containing 10% heat inactivated fetal bovine serum (ThermoFisher Scientific 10091148).
Cells for the assay were harvested in growth medium after TrypLE (ThermoFisher scientific 12604021) digestion and were seeded in a 384-well collagen coated cell culture plate (Corning 356702) at a density of 10,000-15,000 cells/20 uL/well, and incubated at 37° C., 5% CO2 overnight. The compound (with 10 mM stock concentration) dose-response titrations were prepared [30 μM final ERK detection assay concentration and 1:3 dilutions, 10-point dose response] and appropriate amounts (270 nL) of test compounds were dispensed in a 384-well intermediate plate using an Echo 550 liquid handler. 30 uL/well of RPMI medium 1640-GlutaMAX™—I was added to the intermediate plate and the contents of the intermediate plate (10 uL/well) were then transferred to the 384-well collagen coated cell culture plate, which was incubated at 37° C., 5% CO2 for 2 hours. After removal of medium from the collagen coated cell culture plate, cells were lysed in lysis buffer from Alpha SureFire® Ultra™ Multiplex p-ERK and total ERK assay kit (PerkinElmer MPSU-PTERK) containing Halt™ Protease and Phosphatase inhibitor cocktail (ThermoFisher Scientific 78446) at room temperature with constant shaking at 300 rpm for 30 minutes. The cell lysates were then transferred to an OptiPlate-384 plate (PerkinElmer 6005620), and the phosphorylation of ERK (p-ERK) and total ERK levels were detected by Alpha SureFire® Ultra™ Multiplex p-EEK kit and total ERK assay kit (PerkinElmer MPSU-PTERK) following the manufacturer's protocol. Assay plates were read on a EnVision Multimode Plate Reader (PerkinElmer), and the ratio of p-ERK vs. total ERK in each well was used as the final readout. Dose response curves were analyzed using a 4-parameter logistic model to calculate IC50 values using Spotfire software.

T4 sequence (P01116 with tags, fused parts or gaps isoform P01116-2 G13D): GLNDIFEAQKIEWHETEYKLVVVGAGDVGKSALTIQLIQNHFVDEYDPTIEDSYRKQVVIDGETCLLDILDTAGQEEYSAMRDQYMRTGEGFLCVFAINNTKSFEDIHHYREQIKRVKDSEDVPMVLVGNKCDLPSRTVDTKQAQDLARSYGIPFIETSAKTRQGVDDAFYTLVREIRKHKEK
T2 sequence (P01116 with tags, fused parts or gaps isoform P01116-2 G12D): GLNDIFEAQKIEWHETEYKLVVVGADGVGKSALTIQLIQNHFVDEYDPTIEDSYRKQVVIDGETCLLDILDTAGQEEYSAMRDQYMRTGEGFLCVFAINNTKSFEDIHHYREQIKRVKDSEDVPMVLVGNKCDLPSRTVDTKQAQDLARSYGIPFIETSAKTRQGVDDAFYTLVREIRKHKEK
HRAS, sequence (P01112 with tags, fused parts or gaps): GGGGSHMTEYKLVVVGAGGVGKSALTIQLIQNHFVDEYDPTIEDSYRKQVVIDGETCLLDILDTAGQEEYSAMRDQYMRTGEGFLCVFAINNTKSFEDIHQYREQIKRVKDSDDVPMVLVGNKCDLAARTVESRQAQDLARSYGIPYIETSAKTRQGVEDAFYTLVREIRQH
NRAS, sequence (P01111 with tags, fused parts or gaps): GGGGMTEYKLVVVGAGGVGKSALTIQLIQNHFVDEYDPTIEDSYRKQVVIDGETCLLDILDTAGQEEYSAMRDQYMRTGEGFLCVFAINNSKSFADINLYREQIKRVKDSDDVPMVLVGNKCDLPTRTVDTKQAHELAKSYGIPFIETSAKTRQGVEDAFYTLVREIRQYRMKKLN
T1 sequence (P01116 with tags, fused parts or gaps isoform P01116-2 G12C/C51S/C80L/C118S): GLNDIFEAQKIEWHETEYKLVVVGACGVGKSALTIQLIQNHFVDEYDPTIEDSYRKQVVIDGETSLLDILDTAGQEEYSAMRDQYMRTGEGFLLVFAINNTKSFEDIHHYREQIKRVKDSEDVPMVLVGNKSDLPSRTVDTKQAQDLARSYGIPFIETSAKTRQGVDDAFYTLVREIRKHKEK
T3 sequence (P01116 with tags, fused parts or gaps isoform P01116-2 G12V): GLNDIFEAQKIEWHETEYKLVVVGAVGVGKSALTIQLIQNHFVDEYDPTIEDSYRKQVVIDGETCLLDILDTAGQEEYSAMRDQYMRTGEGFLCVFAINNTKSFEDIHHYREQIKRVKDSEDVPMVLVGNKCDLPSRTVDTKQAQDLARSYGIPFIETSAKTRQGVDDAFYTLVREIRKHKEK

Compound	IC50 [1]	IC50 [2]	IC50 [3]	IC50 [4]	IC50 [5]	IC50 [6]	IC50 [7]
N#Cc1c(N)sc2c(F)ccc(-c3c(C(F)(F)F)cc4c(N5CCCOCC5)nc(OC[C@@]56CCCN5C[C@H](F)C6)nc4c3F)c12 (single isomer, unassigned) [Ex. 35]	5.51 nM	2.33 nM	1.24 nM	1.13 nM	1.17 µM	> 11.1 µM	12.2 nM
N#Cc1c(N)sc2c(F)ccc(-c3c(Cl)cc4c(N5CCCOCC5)nc(OC[C@]5(CO)CC5(F)F)nc4c3F)c12 [Ex. 32, 2-amino-4-(6-chloro-2-(((R)-2,2-difluoro-1-(hydroxymethyl)cyclopropyl)methoxy)-8-fluoro-4-(1,4-oxazepan-4-yl)quinazolin-7-yl)-7-fluorobenzo[b]thiophene-3-carbonitrile]	885 nM	–	3440 nM	798 nM	> 11.1 µM	> 11.1 µM	–
N#Cc1c(N)sc2c(F)ccc(-c3c(Br)cc4c(N5C6COCC5C6)nc(OC[C@@]56CCCN5C[C@H](F)C6)nc4c3F)c12 [Ex. 36, 4-(4-(3-oxa-6-azabicyclo[3.1.1]heptan-6-yl)-6-bromo-8-fluoro-2-(((2R,7aS)-2-fluorotetrahydro-1H-pyrrolizin-7a(5H)-yl)methoxy)quinazolin-7-yl)-2-amino-7-fluorobenzo[b]thiophene-3-carbonitrile]	37.1 nM	9.34 nM	–	20.2 nM	> 11.1 µM	> 11.1 µM	103 nM
Cc1cc(N)nc(-c2c(F)cc3c(N4CC[C@@H]5[C@@H](C#N)[C@@H]5CC4)nc(OC[C@@]45CCCN4C[C@H](F)C5)nc3c2F)c1C(F)(F)F [Ex. 45, (1R,7S,8S)-4-(7-(6-amino-4-methyl-3-(trifluoromethyl)pyridin-2-yl)-6,8-difluoro-2-(((2R,7aS)-2-fluorotetrahydro-1H-pyrrolizin-7a(5H)-yl)methoxy)quinazolin-4-yl)-4-azabicyclo[5.1.0]octane-8-carbonitrile]	1750 nM	4470 nM	1490 nM	≥ 11100 nM	> 11.1 µM	> 11.1 µM	–

Next, values leading:

IC50 [1]	IC50 [2]	IC50 [3]	IC50 [4]	IC50 [5]	IC50 [6]	IC50 [7]	Compound
14.7 nM	25.2 nM	9.58 nM	10.1 nM	> 11.1 µM	> 11.1 µM	274 nM	COCC1CCOCCN1c1nc(OC[C@@]23CCCN2C[C@H](F)C3)nc2c(F)c(-c3ccc(F)c4sc(N)c(C#N)c34)c(Cl)cc12 (stereo partly drawn) [compound 16, 2-amino-4-(6-chloro-8-fluoro-2-(((2R,7aS)-2-fluorotetrahydro-1H-pyrrolizin-7a(5H)-yl)methoxy)-4-(5-(methoxymethyl)-1,4-oxazepan-4-yl)quinazolin-7-yl)-7-fluorobenzo[b]thio-phene-3-carbonitrile]
243 nM	4980 nM	148 nM	846 nM	> 11.1 µM	> 11.1 µM	–	CC1(NC[C@@]2(COc3nc(N4CCCOCC4)c4cc(Cl)c(-c5ccc(F)c6sc(N)c(C#N)c56)c(F)c4n3)CC2(F)F)CC1 [compound 27, 2-amino-4-(6-chloro-2-(((R)-2,2-difluoro-1-(((1-methylcyclopropyl)a-mino)methyl)cyclopro-pyl)methoxy)-8-fluoro-4-(1,4-oxazepan-4-yl)quinazolin-7-yl)-7-fluorobenzo[b]thiophene-3-carbonitrile]
390 nM	2360 nM	273 nM	936 nM	> 11.1 µM	> 11.1 µM	–	CC1(NC[C@@]2(COc3nc(N4CCCOCC4)c4cc(Cl)c(-c5ccc(F)c6sc(N)c(C#N)c56)c(F)c4n3)CC2(F)F)COC1 [compound 29, 2-amino-4-(6-chloro-2-(((R)-2,2-difluoro-1-(((3-methyloxetan-3-yl)amino)methyl)cyclo-propyl)methoxy)-8-fluoro-4-(1,4-oxazepan-4-yl)quinazolin-7-yl)-7-fluorobenzo[b]thiophene-3-carbonitrile]
1180 nM	2540 nM	152 nM	748 nM	> 11.1 µM	> 11.1 µM	–	N#Cc1c(N)sc2c(F)ccc(-c3c(Cl)cc4c(N5CCCOCC5)nc(OC[C@]5(CN6CCOCC6)CC5(F)F)nc4c3F)c12 [compound 31, 2-amino-4-(6-chloro-2-(((R)-2,2-difluoro-1-(morpholinomethyl)cy-clopropyl)methoxy)-8-fluoro-4-(1,4-oxazepan-4-yl)quinazolin-7-yl)-7-fluorobenzo[b]thiophene-3-carbonitrile]
–	8.27 nM	3.54 nM	–	–	–	48.9 nM	N#Cc1c(N)sc2c(F)ccc(-c3c(Br)cc4c(N5CCCOCC5)nc(OC[C@@]56CCCN5C[C@H](F)C6)nc4c3F)c12 [compound 37, 2-amino-4-(6-bromo-8-fluoro-2-(((2R,7aS)-2-fluorotetrahydro-1H-pyrrolizin-7a(5H)-yl)methoxy)-4-(1,4-oxazepan-4-yl)quinazolin-7-yl)-7-fluorobenzo[b]thiophene-3-carbonitrile]
